Earlier results on 2 molecules are cited in publication PMC8240349 (Journal of Traditional and Complementary Medicine, 2021).

This series relates to CCA. The settings on record: cited from earlier work.

Each structure is given as a SMILES string.

For the molecule `CC1=CCC[C@H](C)[C@@]12CC[C@@H](C(C)(C)O)C2` [hinesol], the “activity (anti-CCA)” value is on record as “weak activity”. Regarding `C=C1CCC[C@]2(C)CC[C@@H](C(C)(C)O)C[C@@H]12` [β-eudesmol], the “IC50, anti-CCA activity” value (bioassay-guided activity) is 20 to 25 µg/mL.
